{
  "source": "patent US20010036929A1",
  "about": "“Xrcc3 is required for assembly of Rad51-complexes in vivo” (ARCH Development Corporation., priority 1998, published 2001)",
  "key": {"[1]": {"system": "Rad51 foci in CHO AA8 cells", "assay": "Cisplatin-induced Rad51 focus formation (a-Rad51 immunostaining) in AA8 cells", "type": "cell-based, Chinese hamster", "conditions": "for Induction of Rad51 foci: then 3 hours before fixation", "description": "(§1) Cisplatin treatment: For dose response studies, the cultures were washed twice in serum-free medium and then incubated for 1 hour in serum-free medium containing varying concentrations of cisplatin (Bristol Laboratories). After the incubation, the dishes were washed three times in serum-free medium and complete medium was added. Cultures were then placed at 37° C. for 3 hours at which time a single-cell suspension was obtained with trypsin/EDTA and the cells were prepared for immunostaining. For time course studies, cell cultures were washed twice in serum-free medium and incubated for one hour in serum-free medium containing 10 μM cisplatin. After incubation, the cells were washed and incubated in complete medium. At the appropriate times the cells were harvested by trypsin treatment and prepared for immunostaining. Immunostaining: Fixed cells were transferred to slides using a Cytospin 2 (Shandon, Pittsburgh, Pa.) centrifuge. Slides were washed twice in Tris-buffered saline (TBS) and incubated for 15 minutes in TBS 1% bovine serum albumin BSA at room temperature. The wash was removed and anti-Rad51 antibody in TBS 1% BSA was applied. The slides were incubated overnight at 4° C. in a humidified chamber. The slides were washed twice in TBS and secondary antibody (fluorescein-conjugated goat anti-rabbit; Molecular Probes, Inc., Eugene, Oreg.) was applied at a 1:1000 dilution in the dark. The slides were incubated at room temperature in the dark for 1 hour. The slides were washed twice with TBS and stained with DAPI (0.1 μg/ml in TBS) for 5 minutes. The slides were dried and coverslips mounted with Vectashield mounting medium (Vector Laboratories Inc., Burlingame, Calif.). Microscopy: Immunostained samples were examined via standard epifluorescence microscopy using a Ziess Photoscope III through a 100X objective. Digital images were obtained with a CCD camera (Imagepoint, Photometrics Inc., Tucson, Ariz.). A single focal plane was documented for each nucleus. Therefore, the numbers presented are less than the total number of foci per nucleus. […]"}, "[2]": {"system": "Rad51 foci in CHO PXR3 cells", "assay": "Cisplatin-induced Rad51 focus formation (a-Rad51 immunostaining) in PXR3 cells", "type": "cell-based, Chinese hamster", "conditions": "foci per nucleus, single focal plane", "description": "as §1, with “dark.” for “dark. The slides were incubated at room temperature in the dark for 1 hour. The slides were washed twice with TBS and stained with DAPI (0.1 μg/ml in TBS) for 5 minutes. The slides were dried and coverslips mounted with Vectashield mounting medium (Vector Laboratories Inc., Burlingame, Calif.). Microscopy: Immunostained samples were examined via standard epifluorescence microscopy using a Ziess Photoscope III through a 100X objective. Digital images were obtained with a CCD camera (Imagepoint, Photometrics Inc., Tucson, Ariz.). A single focal plane was documented for each nucleus. Therefore, the numbers presented are less than the total number of foci per nucleus.”"}, "[3]": {"system": "Rad51 foci in CHO CXR3 cells", "assay": "Cisplatin-induced Rad51 focus formation (a-Rad51 immunostaining) in CXR3 cells", "type": "cell-based, Chinese hamster", "conditions": "foci per nucleus, single focal plane", "description": "as §1, with “dark.” for “dark. The slides were incubated at room temperature in the dark for 1 hour. The slides were washed twice with TBS and stained with DAPI (0.1 μg/ml in TBS) for 5 minutes. The slides were dried and coverslips mounted with Vectashield mounting medium (Vector Laboratories Inc., Burlingame, Calif.). Microscopy: Immunostained samples were examined via standard epifluorescence microscopy using a Ziess Photoscope III through a 100X objective. Digital images were obtained with a CCD camera (Imagepoint, Photometrics Inc., Tucson, Ariz.). A single focal plane was documented for each nucleus. Therefore, the numbers presented are less than the total number of foci per nucleus.”"}, "[4]": {"system": "Rad51 foci in CHO irs1SF cells", "assay": "Cisplatin-induced Rad51 focus formation (a-Rad51 immunostaining) in irs1SF cells", "type": "cell-based, Chinese hamster", "description": "as §1, with “dark.” for “dark. The slides were incubated at room temperature in the dark for 1 hour. The slides were washed twice with TBS and stained with DAPI (0.1 μg/ml in TBS) for 5 minutes. The slides were dried and coverslips mounted with Vectashield mounting medium (Vector Laboratories Inc., Burlingame, Calif.). Microscopy: Immunostained samples were examined via standard epifluorescence microscopy using a Ziess Photoscope III through a 100X objective. Digital images were obtained with a CCD camera (Imagepoint, Photometrics Inc., Tucson, Ariz.). A single focal plane was documented for each nucleus. Therefore, the numbers presented are less than the total number of foci per nucleus.”"}, "XRCC3+ tumors": {"system": "XRCC3+ tumors", "assay": "Mouse xenograft tumor model, XRCC3+ tumors, intratumoral cisplatin", "type": "in vivo", "conditions": "XRCC3+ tumors in nude mice; 0.1 ml 100 μg/ml cisplatin injected into tumors on days 1-5", "description": "(§2) The sensitivity of XRCC3 defective cells to cis-platinum is also reflected in the ability of the drug to cause regression and cure of tumors in a mouse xenograft tumor model. Groups of 12 nude mice were injected in the hind limb with 5X105 XRCC3+ cells or xrcc3− cells. XRCC3+ lines (essentially equivalent to the PXR3 lines described above) and isogenic xrcc3− lines (equivalent to the irs1SF line described above), were injected into nude mice. Tumors were allowed to grow for 2 weeks (volumes of 300-500 mm3). On days 1-5 tumors were injected with 0.1 ml 100 μg/ml cisplatin in PBS or with the same volume of PBS alone. […] Tumor volumes were measured at 3-5 day intervals starting on the first day of treatment. Fractional tumor volumes were calculated as the volume of the tumor on a particular day divided by the volume of the tumor on the day of the first treatment. The fractional tumor volumes in mice injected with XRCC3+ positive cells increased regardless of whether they received cisplatin treatment or the control treatment; the final fractional tumor volume for both the treated and untreated groups was about 5 on average. […] Fractional tumor volume was about 5 on average for the untreated cells and about 0.05 on average for the tumors treated with cisplatin."}, "xrcc3− tumors": {"system": "xrcc3− tumors", "assay": "Mouse xenograft tumor model, xrcc3- tumors, intratumoral cisplatin", "type": "in vivo", "conditions": "xrcc3− tumors in nude mice; 0.1 ml 100 μg/ml cisplatin injected into tumors on days 1-5", "description": "as §2"}, "CHO cells": {"system": "CHO cells", "conditions": "1 μM cisplatin for 1 hour; cited from earlier work"}},
  "data": [
    {"compound": "N.N.[Cl][Pt][Cl]", "note": "[cisplatin]", "values": [
      {"measurement": "Induction of Rad51 foci", "setting": "[1]; 1 μM cisplatin for 1 hour", "value": "Significant induction of foci"},
      {"measurement": "Induction of Rad51 foci", "setting": "[1]; 10 μM cisplatin for 1 hour", "value": "Near maximum induction of foci"},
      {"measurement": "Rad51 foci induced by cisplatin treatment", "setting": "[1]; AA8 cells, foci per nucleus, single focal plane", "value": "up to 30 foci"},
      {"measurement": "Rad51 foci induced by cisplatin treatment", "setting": "[2]", "value": "up to 30 foci"},
      {"measurement": "Rad51 foci induced by cisplatin treatment", "setting": "[3]", "value": "up to 30 foci"},
      {"measurement": "Induction of Rad51 foci by cisplatin treatment", "setting": "[4]", "value": "no induction of foci was detected"},
      {"measurement": "Final fractional tumor volume (volume on day / volume on day of first treatment), average", "setting": "XRCC3+ tumors", "value": "about 5"},
      {"measurement": "Fractional tumor volume (volume on day / volume on day of first treatment), average", "setting": "xrcc3− tumors", "value": "about 0.05"},
      {"measurement": "Cells that survive", "setting": "CHO cells", "value": "50-80%"}
    ]}
  ]
}
